{"source": "paper PMC9503778", "about": "“Targeted Isolation of Antibiotic Brominated Alkaloids from the Marine Sponge Pseudoceratina durissima Using Virtual Screening and Molecular Networking” (Marine Drugs, 2022)", "origin": "cited, not measured here", "design_in_all_cases": "method as in PMID 29702602", "key": {"[1]": {"system": "fresh water fish (Poecilia reticulata)", "settings": "dosed feeding experiments; cited from earlier work"}, "fish": {"system": "fish", "settings": "100 µg/mL; cited from earlier work"}, "[2]": {"system": "reef fish (Acanthus triostegus)", "settings": "dosed feeding experiments; cited from earlier work"}}}
{"smiles": "CN(C)CCCOc1c(Br)cc(/C=C/C(=O)N(C)CCCOc2c(Br)cc(CCN(C)C)cc2Br)cc1Br", "note": "[psammaplysene D]", "values": [{"measurement": "feeding behavior of fresh water fish (Poecilia reticulata)", "setting": "[1]", "value": "significant curtailing in feeding behavior"}, {"measurement": "fish behavior during acute exposure", "setting": "fish", "value": "the fish became totally confused and experienced uncontrolled mobility"}, {"measurement": "feeding behavior of reef fish (Acanthus triostegus)", "setting": "[2]", "value": "significant curtailing in feeding behavior"}]}
